Measurements from ChEMBL document CHEMBL1201862, “PubChem BioAssay data set” (2004).
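Briefly, cells in 96-well plates were exposed to five compound concentrations for 48 h, and endpoints were estimated by linear interpolation. Here, GI50 denotes the concentration required for 50% inhibition of growth.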 Active and inactive are the calls of the source. Rule as the data show it: active = GI50 up to about 1.1 µM and inactive = higher.

Tests used:
Experiment in all cases: inhibition of tumour cell growth, NCI panel, 48 h
OVCAR-5 = tested on: OVCAR-5
Malme-3M = tested on: Malme-3M
EKVX = tested on: EKVX
SF-539 = tested on: SF-539
RPMI-8226 = tested on: RPMI-8226
UACC-62 = tested on: UACC-62
RXF 393 = tested on: RXF 393
OVCAR-8 = tested on: OVCAR-8
M14 = tested on: M14
HOP-92 = tested on: HOP-92
HCT-116 = tested on: HCT-116
SNB-75 = tested on: SNB-75
SK-MEL-2 = tested on: SK-MEL-2
K562 = tested on: K562
SK-OV-3 = tested on: SK-OV-3
NCI-H460 = tested on: NCI-H460
NCI/ADR-RES = tested on: NCI/ADR-RES
SF-295 = tested on: SF-295
DU-145 = tested on: DU-145
SW-620 = tested on: SW-620

Measured: GI50

CC(C)N(CC(=O)O)CC(=O)O
inactive: OVCAR-5 > 100 µM | Malme-3M > 100 µM | EKVX > 100 µM | SF-539 > 100 µM | RPMI-8226 > 100 µM | UACC-62 > 100 µM | RXF 393 > 100 µM | OVCAR-8 > 100 µM | M14 > 100 µM | HOP-92 > 100 µM | HCT-116 > 100 µM | SNB-75 > 100 µM | SK-MEL-2 > 100 µM | K562 > 100 µM | SK-OV-3 > 100 µM | NCI-H460 > 100 µM | NCI/ADR-RES > 100 µM | SF-295 > 100 µM | DU-145 > 100 µM | SW-620 > 100 µM

C(=N\N=C1NCCCN1)/c1ccc2ccccc2c1
inactive: OVCAR-5 8.69 µM | Malme-3M 18.2 µM | EKVX 14.1 µM | SF-539 16.8 µM | RPMI-8226 4.7 µM | UACC-62 13.5 µM | RXF 393 15.5 µM | OVCAR-8 14.7 µM | M14 7.98 µM | HOP-92 10.3 µM | HCT-116 10.4 µM | SNB-75 3.97 µM | SK-MEL-2 13.7 µM | K562 3.48 µM | SK-OV-3 11.2 µM | NCI-H460 4.98 µM | NCI/ADR-RES 19.4 µM | SF-295 11.4 µM | DU-145 11 µM | SW-620 12.4 µM

COC(=O)c1ccc(C)cc1CC1Cc2c(C)cccc2C1=O (stereo not given)
inactive: OVCAR-5 34.4 µM | Malme-3M 10.7 µM | EKVX 18 µM | SF-539 8.17 µM | RPMI-8226 4.65 µM | UACC-62 6.01 µM | RXF 393 10.9 µM | OVCAR-8 14.3 µM | M14 9.27 µM | HOP-92 16.9 µM | HCT-116 3.58 µM | SNB-75 4.16 µM | SK-MEL-2 5.9 µM | K562 2.94 µM | SK-OV-3 6.21 µM | NCI-H460 17.8 µM | NCI/ADR-RES 3.35 µM | SF-295 7.73 µM | DU-145 29.4 µM | SW-620 3.85 µM

CCOC(=O)CCSc1nc2ccc(I)cc2c(=O)n1Cc1ccccc1
inactive: OVCAR-5 > 83.8 µM | Malme-3M 17.9 µM | EKVX 22.3 µM | SF-539 36.4 µM | RPMI-8226 5.22 µM | UACC-62 27.4 µM | RXF 393 26.9 µM | OVCAR-8 37.5 µM | M14 24.5 µM | HOP-92 13.6 µM | HCT-116 18.8 µM | SNB-75 30.3 µM | SK-MEL-2 31 µM | K562 24 µM | SK-OV-3 > 69.8 µM | NCI-H460 22.6 µM | NCI/ADR-RES 23.7 µM | SF-295 21.7 µM | DU-145 37.1 µM | SW-620 41.1 µM

CCCC/C=C/C/C=C/CCCCCCCCC(=O)OCC1CCCN2CCCCC12 (stereo not given)
inactive: OVCAR-5 > 100 µM | Malme-3M 87.5 µM | EKVX 54.6 µM | SF-539 > 100 µM | RPMI-8226 > 100 µM | UACC-62 48.6 µM | RXF 393 > 100 µM | OVCAR-8 > 100 µM | M14 > 100 µM | HOP-92 31.7 µM | HCT-116 > 100 µM | SNB-75 > 100 µM | SK-MEL-2 > 100 µM | K562 > 100 µM | SK-OV-3 > 100 µM | NCI-H460 > 100 µM | NCI/ADR-RES > 100 µM | SF-295 > 100 µM | DU-145 > 100 µM | SW-620 > 100 µM
